# Columns and labels:
# [1] = Cytotoxicity against mouse RAW264.7 cells assessed as cell viability at 50 uM after 22 hrs by MTT assay relative to control; format: cell-based; details: read-out: Activity
# RAW264.7 [2] = experiment: Antiinflammatory activity in mouse RAW264.7 cells assessed as inhibition of LPS-induced nitrite production at 50 uM after 22 hrs by Griess method relative to LPS-treated control; format: functional; details: RAW264.7, 22 h
# RAW264.7 [3] = experiment: Antiinflammatory activity in mouse RAW264.7 cells assessed as inhibition of LPS-induced nitrite production after 22 hrs by Griess method; format: functional, cell-based; details: RAW264.7, 22 h
IC50 (RAW264.7 [3]) [µM],SMILES,"viability at 22 h, 50 µM [1] [%]",inhibition at 50 µM (RAW264.7 [2]) [%]
60.8,Cc1ccc(C(CCc2ccccc2)c2ccc(C)o2)o1,100,46.8
74.2,CCc1ccc(C(CCc2ccccc2)c2ccc(CC)o2)o1,101,39.4
42.4,Cc1ccc(C(c2ccc([N+](=O)[O-])cc2)c2ccc(C)o2)o1,96.3,73.2
,CCCCC(c1ccc(C)o1)c1ccc(C)o1,100,31.7
70.5,CCc1ccc(C(c2ccccc2)c2ccc(CC)o2)o1,101,41.5
,Cc1ccc(C(CC(C)C)c2ccc(C)o2)o1,101,21.4
,COc1ccc(C(c2ccc(C)o2)c2ccc(C)o2)cc1,97.8,34.6
,Cc1ccc(C(CCc2ccccc2)c2ccc(C)s2)s1,103,21.5
44,COc1cc(C(c2ccc(C)o2)c2ccc(C)o2)ccc1O,98.2,63.7
,Cc1ccc(C(c2ccccc2)c2ccc(C)o2)o1,99.3,33.4
,c1ccc(C(c2ccc[nH]2)c2ccc[nH]2)cc1,100,2.1
,CCC(CC)C(c1ccc(C)o1)c1ccc(C)o1,101,26.6
,Cc1ccc(C(c2ccc(C)o2)C2CCCCC2)o1,102,36.9
44.8,Cc1ccc(C(c2ccc(F)cc2)c2ccc(C)o2)o1,97.8,64.2
,CCC(c1ccc(C)o1)c1ccc(C)o1,101,30.9
50.7,Cc1ccc(C(c2ccc(Cl)cc2)c2ccc(C)o2)o1,101,39.5
56.9,CCc1ccc(C(c2ccc([N+](=O)[O-])cc2)c2ccc(CC)[nH]2)[nH]1,99.2,50.7
41.1,CCc1ccc(C(c2ccc([N+](=O)[O-])cc2)c2ccc(CC)o2)o1,101,63.3
,O=[N+]([O-])c1ccc(C(c2ccc[nH]2)c2ccc[nH]2)cc1,95.8,26.9
,Cc1ccc(C(c2ccc(Br)cc2)c2ccc(C)o2)o1,101,24.9

SMILES,IC50 (RAW264.7 [3]) [µM],"viability at 22 h, 50 µM [1] [%]",inhibition at 50 µM (RAW264.7 [2]) [%]
N=C(N)NN [PIMAGEDINE],43.3,100,70.2
